Reference: patent US12286401B2, “Small molecules that sensitize HIV-1 infected cells to antibody dependent cellular cytotoxicity” (THE TRUSTEES OF THE UNIVERSITY OF PENNSYLVANIA, priority 2018, dated 2025)

Key:
[1] = system: CH58TF infected primary CD4+ T-cells; assay: Recognition of HIV-1 infected cells by 17b (flow cytometry cell-surface staining); assay type: cell-based; conditions: for fold induction at 50 µM: Human immunodeficiency virus 1, T-cell, read-out: Fold Over DMSO (17b, n = 1)
Procedure: (§1) Cell-surface staining of primary CD4+ T cells from healthy HIV uninfected individuals or CEM-NKr cells is performed, as described in Prevost, “Influence of the Envelope gp120 Phe 43 Cavity on HIV-1 Sensitivity to Antibody-Dependent Cell-Mediated Cytotoxicity Responses,” 2017, J. Virol 91; Richard, “CD4 mimetics sensitize HIV-1-infected cells to ADCC,” 2015, Proc. Natl. Acad. Sci. USA, 112:E2687-2694; Richard, “Small CD4 Mimetics Prevent HIV-1 Uninfected Bystander CD4+ T Cell Killing Mediated by Antibody-dependent Cell-mediated Cytotoxicity,” 2016, EBioMedicine 3:122-134; Veillette, “The HIV-1 gp120 CD4-Bound Conformation Is Preferentially Targeted by Antibody-Dependent Cellular Cytotoxicity-Mediating Antibodies in Sera from HIV-1-Infected Individuals,” 2015, J. Virol., 89:545-551; Veillette, “Interaction with cellular CD4 exposes HIV-1 envelope epitopes targeted by antibody-dependent cell-mediated cytotoxicity,” 2014, J. Virol., 88:2633-2644; Richard, “Uninfected Bystander Cells Impact the Measurement of HIV-Specific Antibody-Dependent Cellular Cytotoxicity Responses,” 2018, MBio. 9(2): e00358-18; Richard, “BST-2 Expression Modulates Small CD4-Mimetic Sensitization of HIV-1-Infected Cells to Antibody-Dependent Cellular Cytotoxicity,” 2017, J. Virol. 91(11):e00219-17. Binding of HIV-1 infected cells by HIV+ sera (1:1000 dilution) or anti-Env Abs (such as 17b) is performed […] in vitro infection at 37° C. in presence of different concentrations of the MCG analogs or with equivalent volume of vehicle (DMSO). Cells infected with HIV-1 primary isolates are stained intracellularly for HIV-1 p24 using the Cytofix/Cytoperm Fixation/Permeabilization Kit (BD Biosciences, Mississauga, ON, Canada) and then fluorescent anti-p24 mAb (PE-anti-p24, clone KC57; Beckman Coulter/Immunotech, Hialeah, FL) (1:100 final concentration). The percentage of infected cells (p24^+ or GFP+ cells) is determined by gating the living cell population based on the viability dye staining. Samples are analyzed on an LSRII cytometer (BD Biosciences, Mississauga, ON, Canada) and data analysis is performed using FlowJo vX0.7 (Tree Star, Ashland, OR, USA).
(§2) Briefly, Primary CD4 T cells isolated from PBMC were infected with HIV-1CH58TF for 48 hours. For cell surface staining, 5 μg/ml 17b (FIG. 15A) or 1:1000 diluted HIV+ plasma (n=15) (FIG. 15B) were used in the presence of the different MCG analogs (50 μM), (+)-BNM-III-170 or with an equivalent volume of vehicle (DMSO). An Alexa Fluor 647-conjugated anti-human IgG secondary Ab was then used for fluorescent labeling. For ADCC (FIG. 15C), infected cells were used as target cells in a FACS-based ADCC assay that measures the killing of infected (p24+ cells). See, Madani, 2016, J. Virol., 90:5031-5046. The assay determines susceptibility to ADCC mediated by a 1/1,000 dilution of plasma from 15 HIV-1-infected individuals in the presence of the different MCG analogs (50 μM), (+)-BNM-III-170 (50 μM) or with an equivalent volume of vehicle (DMSO). Correlation between cell-surface staining with HIV+ plasma and ADCC was calculated using the Spearman rank correlation (FIG. 15D).

[2] = system: CH58TF infected primary CD4+ T-cells; assay: HIV+ patient sera/plasma recognition of CH58TF infected primary CD4+ T-cells (flow cytometry cell-surface staining); assay type: cell-based, HIV-1; conditions: for fold induction at 50 µM: Human immunodeficiency virus 1, T-cell, read-out: Fold Over DMSO (patient sera, n = 3)
Procedure: as §1
HIV+ Patient Sera (n=3) Recognition of CH58TF Infected Primary CD4+ T-Cells
Staining with patient sera and 50 μM of compounds given as a fold change over DMSO (vehicle).
as §2

[3] = system: HIV-1JR-FL EnvΔCT expressed at the surface of HOS cells; assay: Cell-based ELISA (CBE), 17b readout; conditions: MCG analogs 50 μM; BNM-III-170 5 μM; 2G12 and DMSO normalized
Procedure: Detection of trimeric HIV-1 Env at the surface of HOS cells was performed by cell-based ELISA, as described in Desormeaux, “The highly conserved layer-3 component of the HIV-1 gp120 inner domain is critical for CD4-required conformational transitions,” J. Virol. 87:2549-2562; Alsahafi, “Effects of the I559P gp41 change on the conformation and function of the human immunodeficiency virus (HIV-1) membrane envelope glycoprotein trimer,” 2015, PLoS One 10:e0122111; and Veillette, “Conformational evaluation of HIV-1 trimeric envelope glycoproteins using a cell-based ELISA assay,” 2014, J. Vis. Exp., 91:51995. To enhance cell-surface expression of HIV-1 EnvRF a stop codon was introduced to replace the codon for Gly 711, truncating the cytoplasmic tail (ACT). Briefly, HOS cells were seeded in T-75 flasks (3×10^6 cells per flask) and transfected the next day with 22.5 μg of Env-expressing plasmids (wild-type and mutants S375W, S375T, H66A, A582T/L587A, etc) using the standard polyethylenimine (PEI, Polyscience Inc, PA, USA) transfection method. Twenty-four hours after transfection, cells were plated in 384-wells plates (2×10^4 cells per well). One day later, cells were washed twice with blocking buffer (10 mg/mL non-fat dry milk, 1.8 mM CaCl2), 1 mM MgCl2, 25 mM Tris, pH 7.5 and 140 mM NaCl) and then incubated for 30 minutes at room temperature with different concentrations of MCG analogs or equivalent volume of vehicle (DMSO). Cells were then incubated for an additional 1 h at room temperature with anti-HIV-1 Env monoclonal antibodies recognizing CD4-induced gp120 epitopes (17b, A32), CD4-binding site gp120 epitopes (VRC03, VRC01, F105, and b12), gp120 V3 glycans (19b, PGT126, PGT122, and 10.1074), gp120 outer domain (2G12), and gp120-gp41 interface (PGT151 and VRC34) epitopes. All ligands were diluted in blocking buffer. A horseradish peroxidase-conjugated antibody specific for the Fc region of human or mouse IgG (Pierce) was then incubated with the samples for 45 minutes at room temperature. For all conditions, cells were washed 5 times with blocking buffer and 5 times with washing buffer (1.8 mM CaCl2), 1 mM MgCl2, 25 mM Tris, pH 7.5 and 140 mM NaCl). HRP enzyme activity was determined after the addition of 20 μl per well of a 1:1 mix of Western Lightning oxidizing and luminol reagents (Perkin Elmer Life Sciences). Light emission was measured with an LB 941 TriStar luminometer (Berthold Technologies) and analysis with Graph Pad software.
The data of Table 2 is given as the fold over BNM-III-170 (5 μM) of Cell-Based ELISA with MCG Analogs (50 μM)—17b readout, 2G12 and DMSO normalized.
To identify molecules able to expose vulnerable Env epitopes, a cell-based ELISA (CBE) assay was adapted, capable of measuring conformational changes of membrane-bound trimeric Env as described in Veillette, 2014, J. Vis. Exp. doi:10.3791/51995:51995; Haim, 2011, PLoS Pathog 7:e1002101, into a high-throughput screening (HTS) platform (FIG. 10A). Briefly, the cytoplasmic-tail deleted HIV-1JR-FL Tier-2/3 Env was expressed on the surface of HOS cells in a 384-well-plate format. The cytoplasmic tail of Env was deleted to enhance Env expression at the cell surface and therefore enhance the sensitivity of the CBE assay. See, Veilette and Haim, 2009, PLoS Pathog 5:e100036. Small molecules or, as a positive control, soluble (sCD4) were added to expose the HIV-1JR-FL EnvΔCT epitope that can be recognized by the CD4i antibody 17b. See, Wyatt, 1995, J. Virol. 69:5723-5733; Rizzuto, 1998, Science 280:1949-1953.
17b binding was detected by a horseradish peroxidase-conjugated (HRP) second antibody, and HRP enzyme activity was measured by Western Lightning oxidizing and luminal reagents. 17b binding in the presence of sCD4 was set as the control (FIG. 10B, blue dots), small molecules that enhanced 17b binding above 25% of the one induced by sCD4 were retested in quadruplicate and only one molecule (UM0059920) was deemed a true positive (FIG. 10B, red dots). […]

Solubility in PBS = assay type: physicochemical; conditions: Yes/NO

Row | SMILES | fold induction at 50 µM [1] | fold induction at 50 µM [2] | Fold over BNM-III-170 - 17b binding (±0.05) [3] [fold] | Solubility (in PBS) (Solubility in PBS) | Fold Over DMSO (17b, n = 1) ([1]; 50 μM of compounds, 17b staining) [fold] | Fold Over DMSO (patient sera, n = 3) ([2]; 50 μM of compounds, staining with HIV+ patient sera, CH58TF infected primary CD4+ T-cells) [fold]
1 | CCS(=O)(=O)N1CCNC(C(=O)Nc2ccc(Cl)c(F)c2)C1 (centres unmarked) [MCG-III-212-A02] | 3.95 | 1.85 | 0.36 | Yes |  | 
2 | O=C(Nc1ccc(Cl)c(F)c1)C1CNc2ccccc2C1 (centres unmarked) [MCG-III-209] | 3.23 | 1.82 |  | Yes |  | 
3 | CCS(=O)(=O)N1CCCC(NC(=O)c2ccc(Cl)c(F)c2)C1 (centres unmarked) [MCG-III-157-C02] |  | 1.05 | 0.07 | Yes |  | 
4 | Cn1cnc(S(=O)(=O)N2CCCC(NC(=O)c3ccc(Cl)c(F)c3)C2)c1 (centres unmarked) [MCG-III-157-C04] |  | 0.897 | 0.04 | Yes |  | 
5 | CS(=O)(=O)N1CCC[C@H](C(=O)Nc2ccc(C(F)(F)F)cc2)C1 [(S)-MCG-III-027-A04] | 1.07 | 1.4 | 0.17 | Yes |  | 
6 | CCS(=O)(=O)N1CCC[C@H](C(=O)Nc2ccc(F)c(F)c2)C1 [(S)-MCG-III-085-C04] | 3.95 | 1.68 | 0.26 | Yes |  | 
7 | O=C(Nc1ccc(Cl)c(F)c1)[C@H]1CCCN(S(=O)(=O)C(F)(F)F)C1 [(S)-MCG-III-132] |  | 1.58 | 0.27 | Yes |  | 
8 | CCS(=O)(=O)N1CCC[C@H](C(=O)Nc2ccc(F)c(Cl)c2)C1 [(S)-MCG-III-085-C02] | 2.15 | 1.19 | 0.20 | Yes |  | 
9 | Cn1cnc(S(=O)(=O)N2CCC[C@H](C(=O)Oc3ccc(Cl)c(F)c3)C2)c1 [(S)-MCG-III-213-A04] | 1.06 | 1.07 | 0.10 | Yes |  | 
10 | CCS(=O)(=O)N1CCOC(C(=O)Nc2ccc(Cl)c(F)c2)C1 (centres unmarked) [MCG-III-211-A02] | 3.64 | 1.81 | 0.33 | Yes |  | 
11 | CS(=O)(=O)N1CCC[C@H](C(=O)Nc2ccc(F)c(Cl)c2)C1 [(S)-MCG-III-085-A02] | 2.15 | 1.13 | 0.22 | Yes |  | 
12 | O=C(Nc1ccc(Cl)c(F)c1)C1CNCCO1 (centres unmarked) [MCG-III-196] |  |  |  | Yes | 2.595 | 1.499
13 | CS(=O)(=O)N1CCNC(C(=O)Nc2ccc(Cl)c(F)c2)C1 (centres unmarked) [MCG-III-216-A02] | 1.3 | 1.03 | 0.10 | Yes |  | 
14 | CS(=O)(=O)N1CCCC(C(=O)Nc2ccc(Cl)c(F)c2)C1 (centres unmarked) [MCG-III-157-B01] |  | 1.48 | 0.42 | Yes |  | 
15 | Cn1cnc(S(=O)(=O)N2CCC(C(=O)Nc3ccc(Cl)c(F)c3)C2)c1 (centres unmarked) [MCG-III-157-A04] |  | 1.28 | 0.34 | Yes |  | 
16 | CCS(=O)(=O)N1CC(C(=O)Nc2ccc(Cl)c(F)c2)Cc2ccccc21 (centres unmarked) [MCG-III-214-A02] | 5.16 | 3.25 |  | Yes** |  | 
17 | CCN1CC(C(=O)Nc2ccc(Cl)c(F)c2)Cc2ccccc21 (centres unmarked) [MCG-III-201] | 1.39 | 0.989 |  | Yes |  | 
18 | CCS(=O)(=O)N1CCC(C(=O)Nc2ccc(Cl)c(F)c2)C1 (centres unmarked) [MCG-III-157-A02] |  | 1.64 | 0.27 | Yes |  | 
19 | CS(=O)(=O)N1CCC(C(=O)Nc2ccc(Cl)c(F)c2)C1 (centres unmarked) [MCG-III-157-A01] |  | 1.85 | 0.36 | Yes |  | 
